Key:
[1] = tested on: DAEFRH (SEQ ID NO: 26)-specific mAb; assay: ELISA with peptide libraries (detection by biotinylated DAEFRH-specific mAb); assay type: binding, mice; conditions: mimotopes from libraries 1-3
From the text: (§1) Mice are vaccinated with the 6mer peptide DAEFRH (SEQ ID NO: 26) (natural N-terminal Aβ42 sequence) linked to the protein bovine serum albumin BSA (to make use of the hapten-carrier-effect), emulsified in CFA (first injection) and IFA (booster injections). DAEFRH (SEQ ID NO: 26)-peptide-specific, antibody-producing hybridomas are detected by ELISA (DAEFRH (SEQ ID NO: 26)-peptide-coated ELISA plates).
As mentioned above, peptide libraries 1, 2, and 3 are generated with an Applied Biosystems 431A peptide synthesizer following classical Fmoc-chemistry. The commercially available peptide library 4 is generated according to the manufacturer's description (see above and under www.mimotopes.com). The 90 peptides are C-terminally linked to a pin.
The ELISA with each of the peptide libraries have been carried out following standard protocols:
The peptide library is dissolved in 100% DMSO (final concentration 10 mg/ml).
The peptide solution is further diluted in PBS.
The peptide mixture is coated overnight (4° C.) onto ELISA plates (Nunc Maxisorp, Germany), starting with 500 μg/well, and titrated to 100 ng/well.
The plates are washed 3× times with PBS/Tween 20 (0.1% v/v).
The plates are blocked with PBS/BSA (2 h at room temperature).
The plates are washed 3× times with PBS/Tween.
The plates are incubated with biotinylated DAEFRH (SEQ ID NO: 26)-specific mAb (10 μg/ml in PBS) for 4 h at room temperature.
The plates are incubated with streptavidin-horseradish-peroxidase (30 min at room temperature).
The plates are washed 5× times with PBS/Tween.
The plates are incubated with ABTS+H2O2 (0.1% w/v; 10 to 45 min) and the reaction is stopped with citric acid followed by photometric evaluation (wavelength 405 nm).

[2] = tested on: monoclonal antibody specific for the natural N-terminal Aβ42 sequence DAEFRH; assay: Inhibition assay: mimotope peptides compete with plate-bound DAEFRH-BSA for recognition by the biotinylated monoclonal antibody (ELISA); assay type: binding, mice; design: key to inhibition (s/m/—): s: strong inhibition; m: moderate inhibition; —: no inhibition; conditions: for inhibition of epitope recognition by the monoclonal antibody (in words): FIGS. 2-9; for inhibition (s/m/—): peptides of the new screening round and 5mers with non natural amino acids; for Inhibitory capacity of mimotopes: summary Tables 1 and 2, in words
From the text: 1.: Generation of Monoclonal Antibodies (mAb) to Detect Aβ42-Derived Peptide Species with Free N-Terminus (Free Aspartic Acid at the N-Terminus)
as §1
(§2) FIGS. 2 and 3 describe the results of inhibition assays performed with mimotope peptides included in and obtained from the 5 libraries (as described). The mimotope peptides compete with the original epitope for recognition by the monoclonal antibody. Original epitope and mimotope peptides contain an additional C at the C-terminus for coupling to a protein carrier (if desired).
(§3) After blocking with PBS/BSA 1% (200 μl/well, 12 h, 4° C.), the plates are washed 3× times with PBS/Tween. Then, biotinylated monoclonal antibody (1:2000, 50 μl/well) and peptides (50 μl/well) at 50, 5, 0.5, 0.05, 0.005, and 0.0005 μg/ml are added for 20 min. at 37° C. The plates are washed 3× times with PBS/Tween and are incubated with horseradish peroxidase (HRP)-labeled streptavidin (100 μl/well, 30 min, RT). The plates are washed 5× times with PBS/Tween and are incubated with ABTS+H2O2 (0.1% w/v, 10 to 45 min) and the reaction is stopped with citric acid followed by photometric evaluation (wavelength 405 nm).
as §2, with “4” for “2”, “5” for “3”, “C-terminus (position 7)” for “C-terminus”
as §3, with “different concentrations” for “50, 5, 0.5, 0.05, 0.005, and 0.0005 μg/ml”
as §2, with “6 to 8” for “2 and 3”, “2” for “5”, “described above).” for “described).”, “C-terminus (position 7 or position 8, respectively)” for “C-terminus”

In the case of DIDYHR, the “detection by the monoclonal antibody” value [1] is reported as “can be detected by the monoclonal antibody”.

For DIDYRR, the “detection by the monoclonal antibody” value [1] was “can be detected by the monoclonal antibody”.

With DLDYHR the “detection by the monoclonal antibody” value [1] was “can be detected by the monoclonal antibody”.

With DLDYRR the “detection by the monoclonal antibody” value [1] was “can be detected by the monoclonal antibody”.

In the case of DVDYHR, the “detection by the monoclonal antibody” value [1] is reported as “can be detected by the monoclonal antibody”.

In the case of DVDYRR, the “detection by the monoclonal antibody” value [1] is reported as “can be detected by the monoclonal antibody”.

EIDYHR was tested, and the “detection by the monoclonal antibody” value [1] was “can be detected by the monoclonal antibody”.

For ELDYHR, the “detection by the monoclonal antibody” value [1] was “can be detected by the monoclonal antibody”.

With EVDYHR the “detection by the monoclonal antibody” value [1] was “can be detected by the monoclonal antibody”.

GSEFRDY [Peptide 4013] was tested, and the “inhibition of epitope recognition by the monoclonal antibody (in words)” value (“inhibition of epitope recognition” for short) [2] was “moderately inhibit binding” and the “inhibition (s/m/—)” value [2] was “m”.

In the case of KKELRI [Peptide 1234], the “inhibition of epitope recognition” value [2] is reported as “hardly inhibitory at the concentrations tested” and the “Inhibitory capacity of mimotopes” value [2] is reported as “none”.

In the case of SAEFRAT [Peptide 4016], the “inhibition of epitope recognition” value [2] is reported as “strongly block epitope recognition” and the “inhibition (s/m/—)” value [2] is reported as “s”.

For SAEFRTQ [Peptide 4015], the “inhibition of epitope recognition” value [2] was “strongly block epitope recognition” and the “inhibition (s/m/—)” value [2] was “s”.

With SWEFRLY [Peptide 4018] the “inhibition of epitope recognition” value [2] was “strongly block epitope recognition” and the “inhibition (s/m/—)” value [2] was “s”.

SWEFRNP [Peptide 4017] was tested, and the “inhibition of epitope recognition” value [2] was “strongly block epitope recognition” and the “inhibition (s/m/—)” value [2] was “s”.

With SWFRNP [Peptide 4019] the “inhibition of epitope recognition” value [2] was “not inhibitory at the concentrations tested” and the “inhibition (s/m/—)” value [2] was “—”.

With VPTSALA [Peptide 4037] the “inhibition of epitope recognition” value [2] was “not inhibitory at the concentrations tested” and the “inhibition (s/m/—)” value [2] was “—”.

WHWSWR [Peptide 4004] was tested, and the “inhibition of epitope recognition” value [2] was “not able to inhibit binding” and the “Inhibitory capacity of mimotopes” value [2] was “none”.

In the case of YREFFI [Peptide 3003], the “inhibition of epitope recognition” value [2] is reported as “not able to inhibit binding” and the “Inhibitory capacity of mimotopes” value [2] is reported as “none”.

In the case of YREFRI [Peptide 3004], the “inhibition of epitope recognition” value [2] is reported as “block epitope recognition”, the “concentration at which the peptide is only inhibitory” value ([2]; only inhibitory at a (relatively) high concentration) is reported as 50 µg/mL and the “Inhibitory capacity of mimotopes” value [2] is reported as “weak”.

Source: patent US8022180B2, “Method for preventing and treating Alzheimer's disease” (Affiris Forschungs-und Entwicklungs GmbH, priority 2004, dated 2011)
